Data from EP4178959B1, “NITROGEN HETEROCYCLIC CYTOKININ DERIVATIVES, COMPOSITIONS CONTAINING THESE DERIVATIVES AND USE THEREOF” (Univerzita Palackého v Olomouci, priority 2020, dated 2022).

Assays:
[1] = tested on: mouse immortalized bone marrow macrophages B10A.4; experiment: Calcein AM cytotoxicity assay, B10A.4 cells; conditions: read-out: Cytotoxicity IC50, B10A.4, first column headed B10A.4, 72 hours
Experimental: (§1) All compound concentrations were examined in duplicates. […] Zero cytotoxicity is a basic prerequisite for the use of these substances in cosmetical applications. To assess the antitumor activity, the toxicity of new derivatives on panels containing cell lines of different histogenic and species origin was tested (Table 5). […] The compounds listed in Table 5 can be divided into 2 groups.
(§2) The first group contains "classical cytokinins" represented by 6-substituted purines (their effects are already known). The second group includes novel 2-fluoro-N6-substituted-9-(2-oxacycloalkyl)-9H-purine-6-amine derivatives. […] Low cytotoxicity (high IC50 value) of the compounds is the basic prerequisite for cosmetic and medical applications. […] Table 5: Cytotoxicity of novel compounds for different normal cell lines tested / IC50 (µmol/L)

[2] = tested on: BJ (human foreskin fibroblasts); experiment: Calcein AM cytotoxicity assay, BJ cells; conditions: read-out: Cytotoxicity IC50, BJ; Calcein AM, 72 hours
Experimental: as §1, §2

[3] = tested on: Mouse fibroblasts NIH3T3; experiment: Calcein AM cytotoxicity assay, NIH3T3 cells; conditions: read-out: Cytotoxicity IC50, NIH-3T3; Calcein AM, 72 hours
Experimental: as §1, §2

[4] = tested on: Arabidopsis thaliana; experiment: Effect on the root proliferation of Arabidopsis thaliana; type: in vivo, Arabidopsis thaliana (ecotype Columbia); conditions: for Concentration with highest activity: number of lateral roots; for Activity (%) [10^-8 mol.l^-1 Kin = 100%]: number of lateral roots (% of control), at concentration with highest activity
Experimental: Arabidopsis thaliana seeds (ecotype Columbia) were sterilized with 70% ethanol and 0.1% Triton X-100 and then washed with 70% ethanol containing 0.01% Triton X-100. Then the seeds were transferred to vertical square petri dishes (11 seeds per dish) on a solid medium consisting of MS (2.15 g/l), MES (0.5 g/l), sucrose (1 g/l), agar (11 g/l), buffered to pH 5.8, and various concentrations of tested compounds. The compounds were dissolved in DMSO, thus 0.05% DMSO was used as a control solution. After incubation for 3 days in darkness at 4°C, the seeds were germinated and grown in an environmental chamber (fluorescence light intensity 150 µE m^-2 s^-1, humidity 55%, 16 h day/8 h night, 22°C). […] The number of lateral roots was scored under a stereomicroscope. […] In addition, compounds with tetrahydropyranyl protection at N9 slightly increase the number of emerged lateral roots (Fig 3C). […] Table 6: […]

[5] = tested on: Zea mays seedlings; experiment: Effect on development of Zea mays seedlings (hydroponic); type: in vivo, Zea mays cv. CELLUX; conditions: for Root dry mass (%) [4 x 10^-8 mol.l^-1 Kin = 100%] / Shoot dry mass (%) [10^-6 mol.l^-1 Kin = 100%]: at concentration with highest activity
Experimental: Maize seeds (Zea mays cv. CELLUX) were imbibed in tap water and germinated on a wetted filter paper. After 3 days, the germinated seedlings were transferred to aerated hydroponic tanks filled with Hoagland's nutrient solution. The plants were grown in an environmental chamber with 16 h light period (250 μE m^-2 s^-1) at 27°C and 8 h dark period at 20°C. Tested compounds diluted in DMSO were added to nutrient solution immediately when seedlings were nested in the tanks or after two additional days of cultivation. Control plants were grown in parallel with addition of corresponding amount of DMSO (up to 0.01%). Root and leaf tissues of ten plants were harvested at different time points after the application of the compounds, immediately frozen in liquid nitrogen and used for cytokinin content and transcript level analysis. Length of primary root and the first leaf were determined with ruler on sets of twelve plants, each cultivated in the independent tank (for every cytokinin application repeated ten times). Dry mass of root system and the aerial part was determined after cutting off the kernel and desiccation in dryer for two days at 60°C. […] Fig. 4) and up to 1 micromolar concentration when more seedlings were in the solution (approx. 50 seedlings per 1 liter; Fig. 5). […] Table 7: […]

[6] = tested on: excised wheat leaf tips; experiment: Senescence inhibition on winter wheat leaf segments (chlorophyll retention); design: species or system Triticum aestivum cv. Hereward; conditions: for Concentration with highest activity: retention of chlorophyll; for Activity (%) [10^-4mol.l^-1 KTHP = 100%] / Emax: retention of chlorophyll in excised wheat leaf tips, 96 h in the dark, at concentration with highest activity; for Emax: Triticum aestivum, foliar, read-out: Activity (%) [10^-4mol.l^-1 KTHP = 100%]
Experimental: Seeds of winter wheat, Triticum aestivum cv. Hereward, were washed under running water for 24 hours and then sown on vermiculite soaked with the Knop's solution. They were placed in the grow chamber at 25 °C with a 16/8 h light period at 50 μmol.m^-2.s^-1. After 7 days, the first leaf was fully developed and the second leaf had started to grow. A tip section of the first leaf, approximately 35 mm long, was removed from 5 seedlings and trimmed slightly to a combined weight of 100 mg. The basal ends of the five leaf tips were placed in the wells of a microtiter polystyrene plate containing 150 μl of the solution of the tested compound each. The entire plate was inserted into a plastic box lined with paper tissues soaked with distilled water to prevent leaf sections from drying out. […] The absorbance of the extract was recorded at 665 nm. In addition, chlorophyll extracts from fresh leaves and leaf tips incubated in deionised water were measured. From the obtained data, the concetration with the highest activity was selected for each compound tested. Relative activity of the compound at this concentration was calculated (Table 7). […] The values shown are means of five replicates and the whole experiment was repeated twice. The compounds to be tested were dissolved in dimethylsulfoxide (DMSO) and the solution brought up to 10^-3 M with distilled water. […] The compounds listed in Table 7 can be divided into 2 groups. The first group contains "classical 6,9-disubstituted purines (KTHP as a control)" known in prior art. […] Table 9: […]

[7] = Calcein AM cytotoxicity assay, B10A.4 cells; conditions: mouse; for CC50 at 72 h: b10a.4 macrophages
Experimental: as §1, §2

[8] = Calcein AM cytotoxicity assay, BJ cells; conditions: human; for CC50 at 72 h: bj fibroblasts
Experimental: as §1, §2

[9] = Calcein AM cytotoxicity assay, NIH3T3 cells; conditions: mouse; for CC50 at 72 h: nih3t3 cells
Experimental: as §1, §2

[10] = tested on: Arabidopsis thaliana; experiment: Arabidopsis root growth inhibition test; type: in vivo, Arabidopsis thaliana (ecotype Columbia); conditions: for root growth inhibition (in words): compared to WT, 7-d-old seedlings; for Primary root length 7-d, WT = 100%: 7-d-old plants
Experimental: Arabidopsis thaliana seeds (ecotype Columbia) were sterilized with 70% ethanol and 0.1% Triton X-100 and then washed 4 times with sterile water. The seeds were transferred to Petri dishes on a solid medium consisting of MS (2.2 g l^-1), sucrose (10 g l^-1), agar (8 g l^-1), and supplemented with cytokinins or DMSO control (0.1% DMSO). After incubation for 3 days in darkness at 4°C, the seeds were germinated and grown horizontally in an environmental chamber at 22/20 °C under an 8 h light (120 µmol photons m^-2 s^-1)/16 h dark cycle for 4 days. 7-d-old seedling were used for measurements of the primary root length. At least 35 plants were used for each treatment and each treatment was repeated in at least 5 individual Petri dishes. The length of the primary root was evaluated using Scion Image software (Scion Corporation, Frederick, MD, USA). All measured parameters were statistically evaluated between untreated and treated plants according to Student's unpaired t-test. […] Tab. Inhibition of the primary root growth in 7-d-old Arabidopsis plants. 100% = WT plants, DMSO treated.

[11] = tested on: sweet peppers, cucumbers and tomatoes; experiment: Field trials with vegetables, overall; type: in vivo; conditions: 10 - 100 nM
Experimental: Besides, plants were treated with a commercial fertilizer (type Kristalon) with optimal ratio of N,P,K and micronutrients. Dosage of 2-fluoro-6-[(3-methoxylbenzyl)amino]-9-(tetrahydro-2H-pyran-2-yl)-9H-purine was in the range between 10 - 100 nM, but usually 50 or 100 nM from re-planting to the end of vegetation once a week 500 ml to each plant (Table 10). The application of the compound was performed 1-3 times per week (according to the cultivation system - field or hydroponic). Stock solution was prepared in the concentration range 1-5 µM, then dosing into hydroponic system, watering with fertilizer, or in concentration […] in final fertilizer for use in soil conditions. Number of replicates was 10 / 12 plants from each variant (including control).
In case of cucumbers, fruit weight harvested per plant varied from 99,6 / 110,0 %, number of fruits were 102,3 / 106,8 % compared to control. Fruit weight from 1 plant varied from 100,0 to 124,7 % and number of fruits varied from 92,9 to 143,2 %, compared to control, after application of the tested compound to sweet peppers. In most trials, the size of fruits increased after the application of the tested compound.

[12] = Cytotoxicity IC50, B10A.4, first column headed B10A.4
[13] = tested concentration 0.04 µmol.l^-1
[14] = tested concentration 1 µmol.l^-1
[15] = tested concentration 25 µmol.l^-1

| SMILES | CC50 [1] [µM] | CC50 [2] [µM] | CC50 [3] [µM] | Concentration with highest activity [4] | Activity (%) [10^-8 mol.l^-1 Kin = 100%] [4] | Root dry mass (%) [4 x 10^-8 mol.l^-1 Kin = 100%] [5] | Shoot dry mass (%) [10^-6 mol.l^-1 Kin = 100%] [5] | Concentration with highest activity ([5]; root dry mass) | Concentration with highest activity ([5]; shoot dry mass) | Concentration with highest activity [6] | Activity (%) [10^-4mol.l^-1 KTHP = 100%] [6] | IC50 at 72 h [7, 12] [µM] | IC50 at 72 h [8] [µM] | IC50 at 72 h [9] [µM] | root growth inhibition (in words) [10] | Primary root length 7-d, WT = 100% [10, 13] | Primary root length 7-d, WT = 100% [10, 14] | Primary root length 7-d, WT = 100% [10, 15] | Emax [6] [%] | CC50 at 72 h [7, 12] [µM] | further results |
| --- | --- | --- | --- | --- | --- | --- | --- | --- | --- | --- | --- | --- | --- | --- | --- | --- | --- | --- | --- | --- | --- |
| C/C(=C\CO)CNc1nc(F)nc2c1ncn2C1CCCO1 (stereo not shown) [Compound 6] | > 167 | > 167 | > 167 | 10^-5 mol.l^-1 | 48.5 (± 6) % | 167.2 (± 14) % | 121.2 (± 6) % | 10^-7 mol.1^-1 | 10^-6 mol.1^-1 | 10^-4 mol.l^-1 | 138.2 (± 17) % |  |  |  |  |  |  |  |  |  |  |
| Oc1cccc(CNc2nc(F)nc3c2ncn3C2CCCO2)c1O (stereo not shown) [Compound 29] | > 167 | > 167 | > 167 |  |  |  |  |  |  | 10^-4 mol.l^-1 | 15 (±5) % |  |  |  |  |  |  |  |  |  |  |
| Oc1cccc(CNc2nc(F)nc3c2ncn3C2CCCCO2)c1 (stereo not shown) [Compound 65, 2-Fluoro-6-[(3-hydroxybenzyl)amino]-9-(tetrahydro-2H-pyran-2-yl)-9H-purine] |  |  |  | 10^-5 mol.l^-1 | 32.6 (± 6) % | 187.3 (± 18) % | 121.6 (± 7) % | 10^-7 mol.1^-1 | 10^-6 mol.1^-1 |  |  | > 167 | > 167 | > 167 | did not caused the inhibition of root | 102.9 (±11.0) % | 40.6 (±2.1) % | 31.3 (±1.8) % | 128 |  |  |
| COc1cccc(CNc2nc(F)nc3c2ncn3C2CCCCO2)c1 (stereo not shown) [Compound 67, 2-Fluoro-6-[(3-methoxybenzyl)amino]-9-(tetrahydro-2H-pyran-2-yl)-9H-purine] |  |  |  | 10^-5 mol.l^-1 |  | 261.2 (± 20) % | 127.6 (± 9) % | 10^-7 mol.1^-1 | 10^-6 mol.1^-1 |  |  | > 167 | > 167 | > 167 | did not cause significant root inhibition | 96.9 (±2.4) % | 50.3 (±1.1) % | 34.9 (±2.1) % | 195 |  | effect on elongation of primary root (in words) ([4]; MS media, range of concentration 0.04 to 5 µM): does not have negative effect on elongation of primary root; effect on cell division and organ growth (in words) ([5]; root system and aerial part of seedlings): Positive effect; effect on fertility term elongation of vegetables, number of fruits, protection against abiotic stress (in words) [11]: positive effect |
| CC(CO)CCNc1nc(F)nc2c1ncn2C1CCCCO1 (stereo not shown) [Compound 72] |  |  |  | 10^-6 mol.l^-1 | 68.5 (± 2) % | 161.3 (± 21) % | 104.8 (± 7) % | 10^-7 mol.1^-1 | 10^-6 mol.1^-1 | 10^-4 mol.l^-1 | 103 (± 7) % |  |  |  |  |  |  |  |  | > 167 | CC50 at 72 h [8]: > 167 µM; CC50 at 72 h [9]: > 167 µM |
| Oc1cccc(CNc2ncnc3[nH]cnc23)c1 [meta-topolin, reference compound] |  |  |  |  |  |  |  |  |  |  |  |  |  |  |  | 67.1 (±7.2) % | 33.9 (±2.0) % | 19.3 (±2.3) % |  | > 167 | CC50 at 72 h ([7]; Cytotoxicity IC50, B10A.4, second column headed B10A.4): 178 µM; CC50 at 72 h [8]: 166 µM; CC50 at 72 h [9]: 167 µM |
